# Target: T1, BTK (Homo sapiens, UniProt Q06187)
# T1 construct: endogenous in cells; host or cells: Mino cells
# Assay: BTK degradation activity test in Mino cells
# Assay type: cell-based
# Details: 16 h incubation, Western blot or Elisa
# How it was run: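 DC50 derived by curve fitting of BTK degradation rates versus untreated control across compound concentrations. Mino cells were exposed for 16 h; BTK levels in lysates, normalised via BCA protein, measured by Western blot or ELISA.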
# T1 sequence (Q06187 whole entry): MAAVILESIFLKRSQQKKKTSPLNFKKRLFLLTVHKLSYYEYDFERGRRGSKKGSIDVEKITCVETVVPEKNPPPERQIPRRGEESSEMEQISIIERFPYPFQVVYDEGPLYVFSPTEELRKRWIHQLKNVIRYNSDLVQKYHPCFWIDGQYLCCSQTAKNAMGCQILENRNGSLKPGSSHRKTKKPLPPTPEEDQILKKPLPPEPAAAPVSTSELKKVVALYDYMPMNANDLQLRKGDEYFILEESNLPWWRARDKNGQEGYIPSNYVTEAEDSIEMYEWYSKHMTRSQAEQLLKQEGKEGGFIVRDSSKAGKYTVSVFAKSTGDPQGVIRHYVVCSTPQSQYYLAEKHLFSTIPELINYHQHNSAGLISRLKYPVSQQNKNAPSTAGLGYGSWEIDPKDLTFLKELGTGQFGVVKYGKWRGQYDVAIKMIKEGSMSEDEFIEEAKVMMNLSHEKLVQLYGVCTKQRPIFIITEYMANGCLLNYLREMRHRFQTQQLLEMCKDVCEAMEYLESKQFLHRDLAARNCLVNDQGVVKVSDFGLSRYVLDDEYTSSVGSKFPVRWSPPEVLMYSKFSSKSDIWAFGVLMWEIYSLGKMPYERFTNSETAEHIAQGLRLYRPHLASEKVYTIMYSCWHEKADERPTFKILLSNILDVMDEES
row,SMILES,DC50 [nM]
1,"CN1CCN(C2CC3CC2N(c2nnc(C(N)=O)c(Nc4ccc(C5CCN(CC6CCN(c7ccc8c(c7)CN(C7CCC(=O)NC7=O)C8=O)CC6)CC5)cc4)n2)C3)C1=O (centres unmarked) [Compound 113, 5-((4-(1-((1-(2-(2,6-dioxopiperidin-3-yl)-1-oxoisoindol-5-yl)piperidin-4-yl)methyl)piperidin-4-yl)phenyl)amino)-3-(6-(3-methyl-2-oxoimidazolin-1-yl)-2-azabicycloheptan-2-yl)-1,2,4-triazin-6-carboxamide]",< 1
2,"CN1CCN(C2CC3CC2N(c2nnc(C(N)=O)c(Nc4ccc(C5CCN(CC6CCN(c7ccc8c(c7)n(C)c(=O)n8C7CCC(=O)NC7=O)CC6)CC5)cc4)n2)C3)C1=O (centres unmarked) [Compound 114, 5-((4-(1-((1-(1-(2,6-dioxopiperidin-3-yl)-3-methyl-2-oxo-2,3-dihydro-1H-benzo[d]imidazol-5-yl)piperidin-4-yl)methyl)piperidin-4-yl)phenyl)amino)-3-(6-(3-methyl-2-oxoimidazolin-1-yl)-2-azabicyclo[2.2.1]heptan-2-yl)-1,2,4-triazin-6-carboxamide]",< 1
3,"NC(=O)c1nnc(N2CCC[C@@H](N3CCN(CC(F)(F)F)C3=O)C2)nc1Nc1ccc(N2CCC(CN3CCN(c4cc5c(cc4F)C(=O)N(C4CCC(=O)NC4=O)C5=O)CC3)CC2)cc1 (stereo partly drawn) [Compound 142, 5-((4-(4-((4-(2-(2,6-dioxopiperidin-3-yl)-6-fluoro-1,3-dioxoisoindolin-5-yl)piperazin-1-yl)methyl)piperidin-1-yl)phenyl)amino)-3-((R)-3-(2-oxo-3-(2,2,2-trifluoroethyl)imidazolin-1-yl)piperidin-1-yl)-1,2,4-triazin-6-carboxamide]",< 1
4,"CN1CCN([C@@H]2CCCN(c3nnc(C(N)=O)c(Nc4ccc(N5CCN(C[C@H]6CCN(c7ccc(N8CCC(=O)NC8=O)cc7)C6)CC5)c(F)c4)n3)C2)C1=O [Compound 151, 5-((4-(4-(((R)-1-(4-(2,4-dioxotetrahydropyrimidin-1(2H)-yl)phenyl)pyrrolidin-3-yl)methyl)piperazin-1-yl)-3-fluorophenyl)amino)-3-((R)-3-(3-methyl-2-oxoimidazolin-1-yl)piperidin-1-yl)-1,2,4-triazin-6-carboxamide]",< 1
5,"CN1CCN([C@@H]2CCCN(c3nnc(C(N)=O)c(Nc4ccc(N5CCN(C[C@H]6CCN(c7ccc(C(=O)N[C@H]8CCC(=O)NC8=O)nc7)C6)CC5)c(F)c4)n3)C2)C1=O [Compound 153, 5-((4-(4-(((R)-1-(6-(((S)-2,6-dioxopiperidin-3-yl)carbamoyl)pyridin-3-yl)pyrrolidin-3-yl)methyl)piperazin-1-yl)-3-fluorophenyl)amino)-3-((R)-3-(3-methyl-2-oxoimidazolin-1-yl)piperidin-1-yl)-1,2,4-triazin-6-carboxamide]",< 1

# The next lines start with the values.
row,DC50 [nM],SMILES
1,< 1,CN1CCN(C2CC3CC2N(c2nnc(C(N)=O)c(Nc4ccc(N5CCC(N6CCN(CC#Cc7ccc8c(c7)CN(C7CCC(=O)NC7=O)C8=O)CC6)CC5)cc4)n2)C3)C1=O (centres unmarked) [Compound 110]
2,< 1,"CN1CCN(C2CC3CC2N(c2nnc(C(N)=O)c(Nc4ccc(C5CCN(CC6CCN(c7cc8c(cc7F)C(=O)N(C7CCC(=O)NC7=O)C8=O)CC6)CC5)cc4)n2)C3)C1=O (centres unmarked) [Compound 111, 5-((4-(1-((1-(2-(2,6-dioxopiperidin-3-yl)-6-fluoro-1,3-dioxoisoindol-5-yl)piperidin-4-yl)methyl)piperidin-4-yl)phenyl)amino)-3-(6-(3-methyl-2-oxoimidazolin-1-yl)-2-azabicyclo[2.2.1]heptan-2-yl)-1,2,4-triazin-6-carboxamide]"
3,< 1,"CN1CCN(C2CC3CC2N(c2nnc(C(N)=O)c(Nc4ccc(C5CCN(CC6CCN(c7ccc8c(c7)C(=O)N(C7CCC(=O)NC7=O)C8)CC6)CC5)cc4)n2)C3)C1=O (centres unmarked) [Compound 112, 5-((4-(1-((1-(2-(2,6-dioxopiperidin-3-yl)-3-oxoisoindol-5-yl)piperidin-4-yl)methyl)piperidin-4-yl)phenyl)amino)-3-(6-(3-methyl-2-oxoimidazolin-1-yl)-2-azabicyclo[2.2.1]heptan-2-yl)-1,2,4-triazin-6-carboxamide]"

# — patent US20240360146A1, “BRUTON'S TYROSINE KINASE AND MUTANT DEGRADER, COMPOSITION AND APPLICATION THEREOF” (HANGZHOU HEALZEN THERAPEUTICS CO., LTD., priority 2021, published 2024)
